Measured values as given in PubChem BioAssay (NCI).
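Five compound concentrations were applied to cells in 96-well plates for 48 hours; endpoints were derived by simple linear interpolation of the resulting dose-response curve. TGI: total growth inhibition.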

Columns and labels:
Assay in all cases: NCI anticancer screen, dose series, 48 h
[1] = tested on: HOP-18 NSCLC
[2] = tested on: SNB-78 CNS
[3] = tested on: XF 498 CNS
[4] = tested on: 786-0 renal

CCCCCCCCCC/C=C/C=O
TGI [1]: > 100 µM
TGI [2]: > 100 µM
TGI [3]: > 100 µM

NC(Cc1ccccc1)c1nn[nH]n1 (centres undefined)
TGI [4]: > 100 µM
